Experimental data: US10954269B2, “Anti-inflammatory tripeptides” (Dr. August Wolff Gmbh & Co. KG Arzneimittel, priority 2013, dated 2021)

How the values were obtained:
Details in all cases: substance 10^−9M
primary murine T-cells = experiment: Cytokine secretion on protein level in activated primary murine T-cells (13-plex FACS / Luminex, supernatant); type: cell-based, C57BL/6 mice
How it was run: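 T-cells from secondary lymphatic organs of naïve C57BL/6 mice, stimulated with PMA/Ionomycin or IFN-γ; supernatant cytokines measured by 13-plex FACS 48 h and 72 h after stimulation. In another run, PMA/Ionomycin-stimulated cells received compounds at 10^−7, 10^−9 and 10^−11 M, with IFN-γ, IL-17 and IL-10 measured by Luminex.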

[1] = tested on: human keratinocyte cell line (HaCaT); experiment: Cytokine secretion on protein level in activated human keratinocyte cell line HaCaT (13-plex FACS / Luminex, supernatant); type: cell-based
How it was run: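 Cytokine protein in supernatant is read by multiplex FACS or Luminex. Tripeptide-treated HaCaT cells or blood-derived human T-cells are stimulated beforehand with PMA/Ionomycin or IFN-γ. The most relevant analytes are IL-1, IL-2, IL-6, IL-12p70, IL-17, IFN-γ and TNF-α, sampled 48 h and 72 h after stimulation.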

primary human T-cells = experiment: Cytokine secretion on protein level in activated primary human T-cells (13-plex FACS / Luminex, supernatant); type: cell-based
How it was run: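 First, T-cells are isolated from healthy donors' blood. Next, they and HaCaT keratinocytes are activated for 48 h with PMA/Ionomycin or IFN-γ in the presence of tripeptides. Finally, secreted cytokines are quantified in supernatants by 13-plex FACS at 48 and 72 h.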

[2] = primary murine T-cells stimulated with IFN-γ
[3] = primary murine T-cells stimulated with PBS
[4] = primary murine T-cells stimulated with PMA/Ionomycin
[5] = HaCaT stimulated with PMA/Ionomycin
[6] = primary human T-cells stimulated with IFN-γ
[7] = primary human T-cells stimulated with PBS
[8] = primary human T-cells stimulated with PMA/Ionomycin

## H-(L)-Om-(L)-Pro-Aib-OH [Example 11]
Primary murine T-cells; [2]
  IL-1 cytokine concentration: 100.08 pg/mL
  IL-2 cytokine concentration: 208.9 pg/mL
  IL-4 cytokine concentration: 53.65 pg/mL
  IL-5 cytokine concentration: 531.87 pg/mL
  IL-6 cytokine concentration: 193.06 pg/mL
  IL-10 cytokine concentration: 1383.43 pg/mL
  IL-13 cytokine concentration: 0 pg/mL
  IL-17 cytokine concentration: 39.84 pg/mL
  IL-21 cytokine concentration: 263.02 pg/mL
  IL-22 cytokine concentration: 31.59 pg/mL
  IL-27 cytokine concentration: 42.99 pg/mL
  TNF-α cytokine concentration: 19.71 pg/mL
Primary murine T-cells; [3]
  IFN-γ cytokine concentration: 8321.6 pg/mL
  IL-1 cytokine concentration: 75.71 pg/mL
  IL-2 cytokine concentration: 204.62 pg/mL
  IL-4 cytokine concentration: 0 pg/mL
  IL-5 cytokine concentration: 459.03 pg/mL
  IL-6 cytokine concentration: 172.33 pg/mL
  IL-10 cytokine concentration: 905.76 pg/mL
  IL-13 cytokine concentration: 0 pg/mL
  IL-17 cytokine concentration: 0 pg/mL
  IL-21 cytokine concentration: 0 pg/mL
  IL-22 cytokine concentration: 66.43 pg/mL
  IL-27 cytokine concentration: 141.82 pg/mL
  TNF-α cytokine concentration: 0 pg/mL
Primary murine T-cells; [4]
  IFN-γ cytokine concentration: 2756.75 pg/mL
  IL-1 cytokine concentration: 178.78 pg/mL
  IL-2 cytokine concentration: 261.53 pg/mL
  IL-4 cytokine concentration: 117.11 pg/mL
  IL-5 cytokine concentration: 513.39 pg/mL
  IL-6 cytokine concentration: 333.86 pg/mL
  IL-10 cytokine concentration: 1302.16 pg/mL
  IL-13 cytokine concentration: 0 pg/mL
  IL-17 cytokine concentration: 244.88 pg/mL
  IL-21 cytokine concentration: 0 pg/mL
  IL-22 cytokine concentration: 94.31 pg/mL
  IL-27 cytokine concentration: 99.05 pg/mL
  TNF-α cytokine concentration: 86.61 pg/mL
[1]; HaCaT stimulated with IFN-γ
  IL-1 cytokine concentration: 31.54 pg/mL
  IL-2 cytokine concentration: 0 pg/mL
  IL-4 cytokine concentration: 0 pg/mL
  IL-5 cytokine concentration: 0 pg/mL
  IL-6 cytokine concentration: 265.29 pg/mL
  IL-9 cytokine concentration: 0 pg/mL
  IL-10 cytokine concentration: 0 pg/mL
  IL-12p70 cytokine concentration: 0 pg/mL
  IL-13 cytokine concentration: 989.21 pg/mL
  IL-17 cytokine concentration: 0 pg/mL
  IL-22 cytokine concentration: 0 pg/mL
  TNF-α cytokine concentration: 0 pg/mL
[1]; HaCaT stimulated with PBS
  IFN-γ cytokine concentration: 0 pg/mL
  IL-1 cytokine concentration: 0 pg/mL
  IL-2 cytokine concentration: 0 pg/mL
  IL-4 cytokine concentration: 99.64 pg/mL
  IL-5 cytokine concentration: 0 pg/mL
  IL-6 cytokine concentration: 42.94 pg/mL
  IL-9 cytokine concentration: 1.97 pg/mL
  IL-10 cytokine concentration: 43.56 pg/mL
  IL-12p70 cytokine concentration: 0 pg/mL
  IL-13 cytokine concentration: 0 pg/mL
  IL-17 cytokine concentration: 0 pg/mL
  IL-22 cytokine concentration: 0 pg/mL
  TNF-α cytokine concentration: 0 pg/mL
[1]; [5]
  IFN-γ cytokine concentration: 57.58 pg/mL
  IL-1 cytokine concentration: 0 pg/mL
  IL-2 cytokine concentration: 19.32 pg/mL
  IL-4 cytokine concentration: 0 pg/mL
  IL-5 cytokine concentration: 0 pg/mL
  IL-6 cytokine concentration: 207.76 pg/mL
  IL-9 cytokine concentration: 0 pg/mL
  IL-10 cytokine concentration: 87.41 pg/mL
  IL-12p70 cytokine concentration: 0 pg/mL
  IL-13 cytokine concentration: 0 pg/mL
  IL-17 cytokine concentration: 0 pg/mL
  IL-22 cytokine concentration: 0 pg/mL
  TNF-α cytokine concentration: 0 pg/mL
Primary human T-cells; [6]
  IL-1 cytokine concentration: 0 pg/mL
  IL-2 cytokine concentration: 212.98 pg/mL
  IL-4 cytokine concentration: 0 pg/mL
  IL-5 cytokine concentration: 83.3 pg/mL
  IL-6 cytokine concentration: 108.08 pg/mL
  IL-9 cytokine concentration: 8.15 pg/mL
  IL-10 cytokine concentration: 50.11 pg/mL
  IL-12p70 cytokine concentration: 0 pg/mL
  IL-13 cytokine concentration: 180.41 pg/mL
  IL-17 cytokine concentration: 0 pg/mL
  IL-22 cytokine concentration: 0 pg/mL
  TNF-α cytokine concentration: 52.55 pg/mL
Primary human T-cells; [7]
  IL-1 cytokine concentration: 0 pg/mL
  IL-2 cytokine concentration: 0 pg/mL
  IL-4 cytokine concentration: 121.69 pg/mL
  IL-5 cytokine concentration: 0 pg/mL
  IL-6 cytokine concentration: 172.14 pg/mL
  IL-9 cytokine concentration: 10.84 pg/mL
  IL-10 cytokine concentration: 0 pg/mL
  IL-12p70 cytokine concentration: 0 pg/mL
  IL-13 cytokine concentration: 187.86 pg/mL
  IL-17 cytokine concentration: 0 pg/mL
  IL-22 cytokine concentration: 0 pg/mL
  INF-α cytokine concentration: 505.68 pg/mL
  TNF-α cytokine concentration: 52.55 pg/mL
Primary human T-cells; [8]
  IL-1 cytokine concentration: 677.32 pg/mL
  IL-2 cytokine concentration: 3920.52 pg/mL
  IL-4 cytokine concentration: 112.94 pg/mL
  IL-5 cytokine concentration: 525.15 pg/mL
  IL-6 cytokine concentration: 1474.06 pg/mL
  IL-9 cytokine concentration: 380.3 pg/mL
  IL-10 cytokine concentration: 563.89 pg/mL
  IL-12p70 cytokine concentration: 0 pg/mL
  IL-13 cytokine concentration: 1258.74 pg/mL
  IL-17 cytokine concentration: 3306.09 pg/mL
  IL-22 cytokine concentration: 0 pg/mL
  INF-α cytokine concentration: 9554.27 pg/mL
  TNF-α cytokine concentration: 2209.22 pg/mL
